≈ marks a conversion by molar mass, not a printed value.
The compounds below were run on S. aureus (assay: Minimum inhibitory concentrations (MICs) for S. aureus of exemplary compounds (Table 2)). Conditions: Staphylococcus aureus, minimum inhibitory concentrations for S. aureus; read-out: MICs.
Assay type: cell-based
Procedure, shortened: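 Growth of S. aureus in media with or without compound, by broth microdilution in microtiter trays following NCCLS M7-A5 guidelines. Values are MICs in μg/mL.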

Compound	MIC
CC(=O)NC[C@H]1CN(c2ccc(-c3ccc(CNCCN4CCOCC4)cc3)c(F)c2)C(=O)O1 [Compound 4318, N-(3-{2-Fluoro-4′-[(2-morpholin-4-yl-ethylamino)-methyl]-biphenyl-4-yl}-2-oxo-oxazolidin-5-(S)-ylmethyl)-acetamide]	16 µg/mL (≈ 34 µM)
CC(=O)NC[C@H]1CN(c2ccc(-c3ccc(CNCc4ccc(-n5cccc5)cc4)cc3)c(F)c2)C(=O)O1 [Compound 4147, N-(3-{2-Fluoro-4′-[(4-pyrrol-1-yl-benzylamino)-methyl]-biphenyl-4-yl}-2-oxo-oxazolidin-5-(S)-ylmethyl)-acetamide]	4 µg/mL (≈ 7.8 µM)
CC(=O)NC[C@H]1CN(c2ccc(-c3ccc(CNCc4cccnc4N4CCOCC4)cc3)c(F)c2)C(=O)O1 [Compound 4117, N-[3-(2-Fluoro-4′-{[(2-morpholin-4-yl-pyridin-3-ylmethyl)-amino]-methyl}-biphenyl-4-yl)-2-oxo-oxazolidin-5-(S)-ylmethyl]-acetamide]	8 µg/mL (≈ 15 µM)
CC(=O)NC[C@H]1CN(c2ccc(-c3ccc(CNC(=O)c4ccncc4)cc3)c(F)c2)C(=O)O1 [Compound 4142, N-{4′-[5-(S)-(Acetylamino-methyl)-2-oxo-oxazolidin-3-yl]-2′-fluoro-biphenyl-4-ylmethyl}-isonicotinamide]	2 µg/mL (≈ 4.32 µM)
CC(=O)NC[C@H]1CN(c2ccc(-c3ccc(CNCCC4C=Nc5ccc(C)cc54)cc3)c(F)c2)C(=O)O1 (stereo partly drawn) [Compound 4228, N-[3-(2-Fluoro-4′-{[2-(5-methyl-3H-indol-3-yl)-ethylamino]-methyl}-biphenyl-4-yl)-2-oxo-oxazolidin-5-(S)-ylmethyl]-acetamide]	2 µg/mL (≈ 3.89 µM)
CC(=O)NC[C@H]1CN(c2ccc(-c3ccc(CN(C)Cc4cnc[nH]4)cc3)c(F)c2)C(=O)O1 [Compound 4067, N-[3-(2-Fluoro-4′-{[(3H-imidazol-4-ylmethyl)-methyl-amino]-methyl}-biphenyl-4-yl)-2-oxo-oxazolidin-5-(S)-ylmethyl]-acetamide]	4 µg/mL (≈ 8.86 µM)
CC(=O)NC[C@H]1CN(c2ccc(-c3ccc(CNCc4ccc(Cl)cc4Cl)cc3)c(F)c2)C(=O)O1 [Compound 4064, N-(3-{4′-[(2,4-Dichloro-benzylamino)-methyl]-2-fluoro-biphenyl-4-yl}-2-oxo-oxazolidin-5-(S)-ylmethyl)-acetamide]	2 µg/mL (≈ 3.87 µM)
CC(=O)NC[C@H]1CN(c2ccc(-c3ccc(C[S+]([O-])c4cnn[nH]4)cc3)c(F)c2)C(=O)O1 (stereo partly drawn) [Compound 2021, N-{3-[2-Fluoro-4′-(3H-[1,2,3]triazole-4-sulfinylmethyl)-biphenyl-4-yl]-2-oxo-oxazolidin-5-(S)-ylmethyl}-acetamide]	2 µg/mL (≈ 4.37 µM)
CO/N=C(\CNCc1cnoc1)c1ccc(-c2ccc(N3C[C@H](CNC(C)=O)OC3=O)cc2F)cc1 [Compound 4254, N-[3-(2-Fluoro-4′-{2-[(isoxazol-4-ylmethyl)-amino]-1-methoxyimino-ethyl}-biphenyl-4-yl)-2-oxo-oxazolidin-5-(S)-ylmethyl]-acetamide]	2 µg/mL (≈ 4.04 µM)
CC(=O)NC[C@H]1CN(c2ccc(-c3ccc(CNCc4nn(C)cc4Br)cc3)c(F)c2)C(=O)O1 [Compound 4168, N-[3-(4′-{[(4-Bromo-1-methyl-1H-pyrazol-3-ylmethyl)-amino]-methyl}-2-fluoro-biphenyl-4-yl)-2-oxo-oxazolidin-5-(S)-ylmethyl]-acetamide]	2 µg/mL (≈ 3.77 µM)
CC(=O)NC[C@H]1CN(c2ccc(-c3ccc(CNCc4ccc(-c5ccccn5)cc4)cc3)c(F)c2)C(=O)O1 [Compound 4017, N-(3-{2-Fluoro-4′-[(4-pyridin-2-yl-benzylamino)-methyl]-biphenyl-4-yl}-2-oxo-oxazolidin-5-(S)-ylmethyl)-acetamide]	2 µg/mL (≈ 3.81 µM)
CC(=O)NC[C@H]1CN(c2ccc(-c3ccc(CN4CC[C@H](O)C4)cc3)c(F)c2)C(=O)O1 [Compound 1087, N-{3-[2-Fluoro-4′-(3-(S)-hydroxy-pyrrolidin-1-ylmethyl)-biphenyl-4-yl]-2-oxo-oxazolidin-5-(S)-ylmethyl}-acetamide]	4 µg/mL (≈ 9.36 µM)
CC(=O)NC[C@H]1CN(c2ccc(-c3ccc(CNCc4ccc(Br)o4)cc3)c(F)c2)C(=O)O1 [Compound 4078, N-[3-(4′-{[(5-Bromo-furan-2-ylmethyl)-amino]-methyl}-2-fluoro-biphenyl-4-yl)-2-oxo-oxazolidin-5-(S)-ylmethyl]-acetamide]	2 µg/mL (≈ 3.87 µM)
CC(=O)NC[C@H]1CN(c2ccc(-c3ccc(CNC(=O)/C=C/c4cn(C)c(=O)n(C)c4=O)cc3)c(F)c2)C(=O)O1 [Compound 4005, N-{4′-[5-(S)-(Acetylamino-methyl)-2-oxo-oxazolidin-3-yl]-2′-fluoro-biphenyl-4-ylmethyl}-3-(1,3-dimethyl-2,4-dioxo-1,2,3,4-tetrahydro-pyrimidin-5-yl)-acrylamide]	2 µg/mL (≈ 3.64 µM)
CC(=O)NC[C@H]1CN(c2ccc(-c3ccc(CNCc4cnoc4)nc3)c(F)c2)C(=O)O1 [Compound 4252, N-{3-[3-Fluoro-4-(6-{[(isoxazol-4-ylmethyl)-amino]-methyl}-pyridin-3-yl)-phenyl]-2-oxo-oxazolidin-5-(S)-ylmethyl}-acetamide]	2 µg/mL (≈ 4.55 µM)

Now from value to compound:

MIC	Compound
2 µg/mL (≈ 3.43 µM)	CC(=O)NC[C@H]1CN(c2ccc(-c3ccc([C@H](O)CN(CCS(C)(=O)=O)Cc4ccccc4)cc3)c(F)c2)C(=O)O1 [Compound 4286, N-[3-(4′-{2-[Benzyl-(2-methanesulfonyl-ethyl)-amino]-1-(S)-hydroxy-ethyl}-2-fluoro-biphenyl-4-yl)-2-oxo-oxazolidin-5-(S)-ylmethyl]-acetamide]
2 µg/mL (≈ 4.51 µM)	CC(=O)NC[C@H]1CN(c2ccc(-c3ccc(CN4CCSCC4)cc3)c(F)c2)C(=O)O1 [Compound 1064, N-[3-(2-Fluoro-4′-thiomorpholin-4-ylmethyl-biphenyl-4-yl)-2-oxo-oxazolidin-5-(S)-ylmethyl]-acetamide]
2 µg/mL (≈ 4.18 µM)	CC(=O)NC[C@H]1CN(c2ccc(-c3ccc([C@@H](O)CNCc4ccncc4)cc3)c(F)c2)C(=O)O1 [Compound 4201, N-[3-(2-Fluoro-4′-{1-(R)-hydroxy-2-[(pyridin-4-ylmethyl)-amino]-ethyl}-biphenyl-4-yl)-2-oxo-oxazolidin-5-(S)-ylmethyl]-acetamide]
2 µg/mL (≈ 4.14 µM)	CC(=O)NC[C@H]1CN(c2ccc(-c3ccc(CN4CCN(CC(N)=O)CC4)cc3)c(F)c2)C(=O)O1 [Compound 1003, 2-(4-{4′-[5-(S)-(Acetylamino-methyl)-2-oxo-oxazolidin-3-yl]-2′-fluoro-biphenyl-4-ylmethyl}-piperazin-1-yl)-acetamide]
2 µg/mL (≈ 4.14 µM)	CC(=O)NC[C@H]1CN(c2ccc(-c3ccc(CNCCSc4ncc[nH]4)cc3)c(F)c2)C(=O)O1 [Compound 5008, N-[3-(2-Fluoro-4′-{[2-(1H-imidazol-2-ylsulfanyl)-ethylamino]-methyl}-biphenyl-4-yl)-2-oxo-oxazolidin-5-(S)-ylmethyl]-acetamide]
1 µg/mL (≈ 2.01 µM)	CC(=O)NC[C@H]1CN(c2ccc(-c3ccc(CNCc4ccc5cccnc5c4)cc3)c(F)c2)C(=O)O1 [Compound 4138, N-[3-(2-Fluoro-4′-{[(quinolin-7-ylmethyl)-amino]-methyl}-biphenyl-4-yl)-2-oxo-oxazolidin-5-(S)-ylmethyl]-acetamide]
1 µg/mL (≈ 2 µM)	CC(=O)NC[C@H]1CN(c2ccc(-c3ccc(CNCCSc4nccs4)cc3)c(F)c2)C(=O)O1 [Compound 5006, N-[3-(2-Fluoro-4′-{[2-(thiazol-2-ylsulfanyl)-ethylamino]-methyl}-biphenyl-4-yl)-2-oxo-oxazolidin-5-(S)-ylmethyl]-acetamide]
1 µg/mL (≈ 1.99 µM)	CC(=O)NC[C@H]1CN(c2ccc(-c3ccc(Cn4cnc5c(N(C)C)ncnc54)cc3)c(F)c2)C(=O)O1 [Compound 1105, N-{3-[4′-(6-Dimethylamino-purin-9-ylmethyl)-2-fluoro-biphenyl-4-yl]-2-oxo-oxazolidin-5-(S)-ylmethyl}-acetamide]
1 µg/mL (≈ 2.37 µM)	CC(=O)NC[C@H]1CN(c2ccc(-c3ccc(Cn4ccnc4C)cc3)c(F)c2)C(=O)O1 [Compound 1066, N-{3-[2-Fluoro-4′-(2-methyl-imidazol-1-ylmethyl)-biphenyl-4-yl]-2-oxo-oxazolidin-5-(S)-ylmethyl}-acetamide]
1 µg/mL (≈ 2.09 µM)	CC(=O)NC[C@H]1CN(c2ccc(-c3ccc(NC(=O)NCc4ccncc4)cc3)c(F)c2)C(=O)O1 [Compound 6004, N-{3-[2-Fluoro-4′-(3-pyridin-4-ylmethyl-ureido)-biphenyl-4-yl]-2-oxo-oxazolidin-5-(S)-ylmethyl}-acetamide]
1 µg/mL (≈ 2.33 µM)	CC(=O)NC[C@H]1CN(c2cc(F)c(-c3ccc(Cn4cnnn4)cc3)c(F)c2)C(=O)O1 [Compound 1048, N-[3-(2,6-Difluoro-4′-tetrazol-1-ylmethyl-biphenyl-4-yl)-2-oxo-oxazolidin-5-(S)-ylmethyl]-acetamide]
1 µg/mL (≈ 1.95 µM)	CC(=O)NC[C@H]1CN(c2ccc(-c3ccc(CNC(=O)c4ccnc5ccccc45)cc3)c(F)c2)C(=O)O1 [Compound 4008, Quinoline-4-carboxylic acid {4′-[5-(S)-(acetylamino-methyl)-2-oxo-oxazolidin-3-yl]-2′-fluoro-biphenyl-4-ylmethyl}-amide]
1 µg/mL (≈ 2.01 µM)	CC(=O)NC[C@H]1CN(c2ccc(-c3ccc(CS(=O)(=O)Cc4ccncc4)cc3)c(F)c2)C(=O)O1 [Compound 4214, N-{3-[2-Fluoro-4′-(pyridin-4-ylmethanesulfonylmethyl)-biphenyl-4-yl]-2-oxo-oxazolidin-5-(S)-ylmethyl}-acetamide]
1 µg/mL (≈ 2.11 µM)	CC(=O)NC[C@H]1CN(c2ccc(-c3ccc(C[S+]([O-])c4nccs4)cc3)c(F)c2)C(=O)O1 (stereo partly drawn) [Compound 2036, N-{3-[2-Fluoro-4′-(thiazole-2-sulfinylmethyl)-biphenyl-4-yl]-2-oxo-oxazolidin-5-(S)-ylmethyl}-acetamide]
0.25 µg/mL (≈ 0.589 µM)	CC(=O)NC[C@H]1CN(c2ccc(-c3ccc(CNc4ccon4)cc3)c(F)c2)C(=O)O1 [Compound 2050, N-{3-[2-Fluoro-4′-(isoxazol-3-ylaminomethyl)-biphenyl-4-yl]-2-oxo-oxazolidin-5-(S)-ylmethyl}-acetamide]

Same assay, conditions: Staphylococcus aureus, read-out: MICs

Compound	MIC
CC(=O)NC[C@H]1CN(c2cc(F)c(-c3ccc(Cn4cc(CN(C)C)nn4)cc3)c(F)c2)C(=O)O1 [Compound 1019, N-{3-[4′-(4-Dimethylaminomethyl-[1,2,3]triazol-1-ylmethyl)-2,6-difluoro-biphenyl-4-yl]-2-oxo-oxazolidin-5-(S)-ylmethyl}-acetamide]	2 µg/mL (≈ 4.13 µM)

— patent publication US10471046B2, “Method for treating, preventing, or reducing the risk of skin infection” (Melinta Subsidiary Corp., priority 2014, dated 2019)
